Row | melting point [°C] | SMILES
1 | 158 to 160 | O=C(/C=C/C=C/c1ccccc1)NCCSCCC(=O)NO
2 | 251 to 253 | CC(C)(C)c1nc(Nc2nc(C(=O)O)cs2)nc(C(C)(C)C)c1O
3 | 110 | O=C(NP(=O)(O)CCc1ccccc1)OCc1ccccc1
4 | 210 | COc1ncnc(OC)c1NC(N)=S
5 | 285 to 287 | O=C(O)c1ccc2c(c1)S(=O)(=O)c1ccccc1C2=O
6 | 204 to 205 | Cc1cc(-c2ccc(C(=O)N3CCN(S(=O)(=O)c4ccc5cc(Br)ccc5c4)CC3)cc2)ccn1
7 | 215 to 218 | CC(C)(CO)Nc1nc(Nc2cccc(NS(C)(=O)=O)c2)nc2[nH]cnc12
8 | 195 to 197 | CC(=O)c1ccc2c(c1)ncn2-c1cccc(-c2cccnc2)c1
9 | 180 | O=C1c2cccc(NC(=S)Nc3ncccc3Br)c2C2CCCCN12 (stereo not given)
10 | 184 to 186 | Cc1cc(C2=NCCO2)cc(C)c1O
11 | 111 to 113 | O=C(Nc1ccc(Oc2ccnc(N3CCCC3)n2)c2ccccc12)c1cc(F)cc(N2CCCCC2)c1
12 | 139 to 140 | CC(C)(C)c1nc(Cl)c2ccccc2c1-c1ccccc1
13 | 76 to 77 | CC1CC(C)(C)C(=O)C=C1Cc1ccc(Cl)cc1 (stereo not given)
14 | 109 to 112 | COc1cc(O)c(CN2CCc3cc(O)ccc3C2)c(OC)c1
15 | 159 to 160 | CCOC(=O)/C=C/c1cnn(C)c1-c1cccnc1
16 | 211 to 213 | COc1cccc(OC)c1CN1CC2CCCN2c2ncccc21 (stereo not given)
17 | 154 to 155 | CC(C)N(CCN1C(=O)/C(=N/NC(N)=O)c2cc(Cl)ccc21)C(C)C
18 | 196 to 197 | CC(C)(C)COc1ccc(NC(=O)c2cnn(-c3ccc(F)cc3)c2)cc1C#N
19 | 232 to 236 | Cc1cc2c(-c3ccccc3N)nc(N3CCNCC3)nc2s1
20 | 67 to 68 | N#Cc1ccc(-c2ccc(O)cc2)cc1F
21 | 105 to 106 | Clc1ccc(OCc2ccccc2)c(C=Cc2ccccn2)c1
22 | 88 to 90 | Cc1ccc(S(=O)(=O)OCC2Cc3cccc(Nc4ccc(C)c(C)c4)c3O2)cc1 (stereo not given)
23 | 182 to 183 | CN(C)CC1CN(c2c(F)cc3c(=O)c(C(=O)O)cn(C4CC4)c3c2F)CCO1 (stereo not given)

Row | melting point [°C] | SMILES
24 | 123 | CCOC(=O)c1ccc(OCCN2CCN(c3ccc(I)nn3)CC2)cc1
25 | 292 | CC(C)(CO)NS(=O)(=O)c1cnc(NC(=O)c2cnn3c(C(F)(F)F)cc(-c4ccc(C(F)(F)F)cc4)nc23)s1
26 | 148 to 149 | CC(=O)NCc1ccc2ccn(C3CCN(CCc4ccc(Cl)cc4)CC3)c2c1
27 | 103 to 104 | Cc1oc(-c2ccccc2)nc1COc1cccc(/C=C/C=O)c1
28 | 168 to 170 | CC1(C)CCC(C)(C)c2cc(C(=O)COc3ccc(C(=O)O)cc3)ccc21
29 | 159 | O=[N+]([O-])c1ccc2oc(-c3ccccc3)cc2c1
30 | 270 | CC1Nc2ccc(NC(=O)c3ccc(-c4ccccc4)cc3)cc2N1C (stereo not given)
31 | 145 to 150 | COc1ccc(CN(C)CCCOc2ccc(NC(=O)c3cccc4c(=O)c5ccccc5[nH]c34)c(C)c2)cc1OC
32 | 71 to 74 | CC1CCC(=O)CC1S(=O)(=O)c1ccccc1 (stereo not given)
33 | 276 to 278 | Cc1ccc(-c2csc(C(=O)Nc3nnn[nH]3)n2)cc1
34 | 255 to 256 | CCn1c(=O)n(-c2ccc(N3CCn4c3nc3cccnc34)cc2)c2ncccc21
35 | 149 to 151 | CCN(CC)c1cccc2nc3n(c12)CC(N)CCN3c1ccc(Cl)cc1Cl (stereo not given)
36 | 145 to 152 | CCC1(c2c[nH]cn2)Cc2ccc(N)cc2C1 (stereo not given)
37 | 89.7 to 90.1 | COc1ccc(C(=O)c2ccc(F)cc2)c(F)c1
38 | 231 to 233 | COc1ccnc(CCc2nc3cc(-c4ccc(S(=O)(=O)Nc5ccccc5)cc4)cnc3[nH]2)c1
39 | 217 | Cc1nc(NC(=O)c2cnn3c(C(F)F)cc(-c4ccc(C(F)(F)F)cc4)nc23)sc1S(=O)(=O)NCCN(C)C
40 | 140 to 144 | CC(C)n1nc(-c2c(-c3ccccc3)nn3ccc(OCC(=O)N4CCN(C(=O)OC(C)(C)C)CC4)cc23)ccc1=O
41 | > 268 | Oc1ccc(-c2ncc3ncc(Nc4ccncc4)cc3n2)cc1
42 | 144 to 146 | Cc1ccc(-c2ccc3c(c2)C=C(C(=O)N[C@H]2CC[C@H](CN(C)C4CCOCC4)CC2)CCO3)cc1
43 | 70 to 72 | CCCCOCC1OC(n2c(Cl)nc3cc(Cl)c(Cl)cc32)C(O)C1O (stereo not given)
44 | 183 to 187 | COc1cc(OC)nc(NC(=O)NS(=O)(=O)c2ccccc2-c2ccno2)n1
45 | 214 to 215 | CCOC(=O)Cn1c(=O)[nH]c2ccc(Cl)cc2c1=O
46 | 120 to 122 | CC(/C=C/C(=O)OC(C)(C)C)=C\c1ccc([N+](=O)[O-])cc1

Row | melting point [°C] | SMILES
47 | 110 to 111 | CCOC(=O)Cn1cc(Cc2nc3c(F)c(F)cc(F)c3s2)c2ccccc21
48 | 184 to 185 | Cc1nn(-c2cc(Oc3ccc(C(=O)O)cc3)c(Cl)cc2F)c(=O)n1C(F)F
49 | 98 to 100 | COc1cc(Nc2c(C#N)cnc3cc(-c4ccsc4CN4CCOCC4)ccc23)c(Cl)cc1Cl
50 | 107 to 109 | CCN(CC)CCNC(=O)c1cccc2nc3cc(Br)ccc3nc12
51 | 175 to 177 | CCc1[nH]n(C2CCCC2)c2nc(Oc3ccccc3)nc(=O)c1-2
52 | 143 to 145 | C=CC1=C(C(=O)O)C(C(F)(F)F)Oc2ccc(Cl)cc21 (stereo not given)
53 | 189 to 190 | CNC(=O)Oc1ccc2c(c1)c1c(n2C)C2(CC1)CCN(C(=O)c1ccccc1)CC2
54 | 291 to 292 | CN(C(=O)N(C)c1ccc(C(=O)O)cc1)c1ccc(C(=O)O)cc1
55 | 139 to 142 | CN(CCCC(C(N)=O)(c1ccccc1)c1ccccc1)CCc1ccc(CN)cc1
56 | 214 to 216 | CC1(C)OC(=O)Nc2ccc(-c3ccccc3-c3ncsn3)cc21
57 | 146 to 147 | COc1ccc(C2=NN(Cc3ccccn3)C(=O)[C@H]3CC=CC[C@@H]23)cc1OC (relative stereo)
58 | 222 to 225 | Cc1c(OCC(C)(C)CS(N)(=O)=O)nn2ccnc2c1C
59 | 101 | COC(C)=CC(=O)Nc1ccccc1C
60 | 200 to 202 | CCCC(O)(CCC)c1ccc(Cl)c2nc3n(c12)CCCN3c1ccc(Cl)cc1C(F)(F)F
61 | 161 to 162 | CC(C)(C)c1ccc(N(c2ccc(-c3ccc(Nc4ccccc4)cc3)cc2)c2ccc(C(C)(C)C)cc2)cc1
62 | 91 to 93 | O=C(O)[C@@H]1CCC(=O)N1Cc1ccccc1
63 | 153 to 155 | CCC(NC(=NC#N)Nc1cccnc1)c1cccc(Cl)c1 (stereo not given)
64 | 194 | COC(=O)c1ccc(NC(C)=O)c(CC(=O)O)c1
65 | 117 to 119 | COC1CCN(S(=O)(=O)c2ccc(S(=O)(=O)Cl)cc2C(F)(F)F)CC1
66 | 165 to 170 | CCS(=O)c1nc(N2CCNCC2)c2sc3nc(-c4ccccc4)cc(C)c3c2n1 (stereo not given)
67 | 210 | CCOc1cc(N)c([N+](=O)[O-])cc1C(=O)OC
68 | > 300 | Cc1nnc(-c2ccc3occ(-c4ccc(C(=O)O)cc4)c3c2)o1

Row | SMILES | melting point [°C]
69 | O=C(NCc1ccc(Cl)cc1)c1cn(CCN2CCCC2)c2ccc(C#CCO)cc2c1=O | 189 to 192
70 | O=C(CCl)NNC1=Nc2ccc(Cl)cc2N(c2ccccc2)C(=O)C1 | 210 to 215

— a melting point compilation (Tetko et al.; mined from patent text by program, amines drawn as free bases though some values may be those of a salt)
